# System: A549 transplanted tumor (human non-small cell lung cancer cell line)
# Experiment: Example 5: Acla A on A549 transplanted tumor in nude mice
# Assay type: in vivo, BALB/c-nu nude mice
# Experimental: Under sterile conditions, the above tumor cells were collected in the logarithmic growth phase. A549 was injected by subcutaneous injection in an amount of 6×10 6/0.2 mL/nude mice (cell viability>90%) into the right subaxillary of the nude mice, thus establishing transplated tumor models of lung cancer in nude mice. The mice were administered from the second day after the inoculation. The experimental group was intragastrically administered at the experimentally designed amount, the negative control group was intragastrically administered with sterile water, and the positive control group is intragastrically administered with Jef. Each mouse was intragastrically administered in 0.4 ml each time and 2 times a day, at 8:00, and 14:00. The administrations were successive for 14 days. The day before administration was deemed as Day 0 and the body weight and tumor size of the mice were determined every 5 days to produce a dynamic plot on body weight and tumor growth. On Day 20, the mice were sacrificed and the tumors were taken out and weighed. The tumor inhibition rate (%) was calculated after the effect of the medicament based on a tumor inhibition rate of the control group being zero.
# The values determined were presented as mean±standard error (Mean±SD). The experimental data for each group was analyzed with One-way ANOVA method in the SPSS 18.0 statistical software, and p<0.05 means that the differences are statistically significant.
smiles,measurement,setting,value
"CC[C@@]1(O)C[C@H](O[C@H]2C[C@H](N(C)C)[C@H](O[C@H]3C[C@H](O)[C@H](O[C@H]4CCC(=O)[C@H](C)O4)[C@H](C)O3)[C@H](C)O2)c2c(cc3c(c2O)C(=O)c2c(O)cccc2C3=O)[C@H]1C(=O)OC [Acla A, aclarubicin A]",inhibitory effect on lung cancer transplanted tumor (in words),"A549, Acla A 1 mg/kg/time",did not exhibit good inhibitory effect
same,Mass of tumor,"A549, Acla A 1 mg/kg/time intragastric, 2 times a day, 14 days, Day 20, Mean ± SD",0.50 ± 0.19 g
same,tumor inhibition rate,"A549, Acla A 1 mg/kg/time intragastric, 2 times a day, 14 days, Day 20, control = 0",−51.52%

# — patent US20150290232A1, “DRUG COMPOSITION FOR TREATING TUMORS AND APPLICATION THEREOF” (priority 2012, published 2015)
